These results are taken from article PMC5864073, “A D-enantiomer of the antimicrobial peptide GL13K evades antimicrobial resistance in the Gram positive bacteria Enterococcus faecalis and Streptococcus gordonii” (PLoS ONE, 2018).

Molecules are shown by their SMILES. Where a SMILES comes first, the peptide text is derived from it. [ ]: non-standard residue; d: D form.

The test system of series [1] is wild-type E. faecalis. Description: Bactericidal activity in sodium phosphate buffer. The class given is cell-based, Enterococcus faecalis. To be noted: 10^8 CFU/ml wild-type E. faecalis, no energy source, 10 mM sodium-phosphate pH 7.4, 2 h, 37°C, spotted on THA; D N = 4, L N = 3. As to the method: These assays were performed according to our established protocol with some modifications. Cells were washed three times in 0.9% NaCl and five μl of washed cells (10^9 CFU/ml) were added to the peptides diluted 2-fold (128 to 4 mg/L) in 45 μl of 10 mM sodium-phosphate, pH 7.4. The samples were incubated at 37°C for 2 h and 10 μl were then spotted on THA plates to assess bactericidal activity.

Series [2] concerns conditioned supernatant of protease-deficient E. faecalis (TX5128). Description: Proteolysis of peptide by conditioned culture supernatant (P. aeruginosa Xen41 bioassay). In kind it is in vitro ADME, Enterococcus faecalis. The note with it: conditioned sterile-filtered supernatant of protease-deficient E. faecalis TX5128, peptide 32 mg/L, 2 h, 37°C; bioluminescence read-out after 15 min; three independent experiments. The method, then: To test proteolytic processing of GL13K peptides, overnight bacterial cultures were centrifuged (5 min, 13,000 g) and the conditioned supernatants were sterile-filtered (0.22 μm, Corning). Filtered supernatant (16.8 μl) was incubated with 3.2 μl (3.2 μg) peptide at 37°C for 2 h to allow bacterial proteases in the supernatant to process the peptide. To determine residual peptide activity, 70 μl of 10 mM sodium phosphate buffer, pH 7.4 was added to each sample and then supplemented with 10 μl (10^8 CFU) of bioluminescent Pseudomonas aeruginosa Xen41 (Caliper Lifesciences; now Perkin Elmer, MA) that had been washed three times in 0.9% NaCl (final maximal peptide concentration 32 mg/L). Viability of the indicator bacteria was determined after 15 min incubation at 37°C by determining bioluminescence in a Synergy HT plate reader. The luminescence detected in the absence of added peptide was used as a measure of 100% proteolysis.
Fig 1 Relative proteolysis of GL13K peptides. (A): Wild-type (OG1RF) or the protease-negative strain (TX5128) of E. faecalis was cultured on THA containing 3% gelatin. Gelatinase activity was visualized as a turbid halo around the bacterial colonies; (B): L-GL13K (L) or D-GL13K (D) (32 mg/L) was incubated with conditioned supernatant of wild-type (OG1RF) or the protease-negative strain (TX5128) of E. faecalis for 2 h. Residual peptide activity was determined by adding bioluminescent P. aeruginosa Xen41 to the mixture. Bioluminescence from surviving bacteria was used as a measure of proteolytic degradation of each peptide and expressed relative to bacterial bioluminescence in the absence of peptides (equivalent to 100% proteolysis). Data are shown as mean ± SEM from three independent experiments and were analyzed by paired t-test for each strain. n.s., not significant.

Series [3] has as its system E. faecalis OG1RF. Description: Triton X-100 induced bacterial autolysis assay. The class given is cell-based, Enterococcus faecalis. To be noted: PBS with 0.05% Triton X-100, peptide 100 mg/L, OD600 for 180 min. As to the method: (§1) The lysis assay followed an established protocol for bacterial autolysis with minor modifications. Exponentially growing cells were washed twice in PBS then washed once in ice-cold dH2O. The bacteria were incubated in PBS with 0.05% Triton X-100 and peptides at a concentration of 100 mg/L. OD600 was monitored spectrophotometrically for 180 min. In some experiments, the cells were incubated with the peptides for 2h in PBS+0.05% Triton X-100 and then cultured on THA to enumerate surviving cells.
(§2) Fig 2 Effect of GL13K peptides on Triton X-100 induced autolysis. E. faecalis OG1RF (A) or the autolysis-deficient strain TX5128 (B) were incubated in PBS with 0.05% Triton X-100 in the absence of peptide (control) or in the presence of 100 mg/L of L-GL13K or D-GL13K (D). The OD600 was recorded for 180 min and expressed as a percent of starting OD600 of the control sample. (C): Bactericidal activity of GL13K peptides in PBS+0.05% Triton X-100. E. faecalis OG1RF were incubated with 0.05% Triton X-100 in the absence of peptide (Ctrl) or with L-GL13K or D-GL13K for 2h. Surviving CFU were enumerated and are shown as mean ± SEM (N = 5). Peptide treated samples were compared to the untreated control by Kruskal-Wallis test with Dunn’s multiple comparison post-test. n.s., not significant.

The subject of series [4] is E. faecalis OG1RF. Description: Bactericidal activity in PBS+0.05% Triton X-100. To be noted: PBS+0.05% Triton X-100, peptide 100 mg/L, 2 h, CFU on THA, N = 5. In kind it is cell-based, Enterococcus faecalis. The method, then:
as §1, §2

In series [5] the test system is E. faecalis OG1RF biofilm. Description: Biofilm assay (Calgary device). To be noted: 24 h biofilm of OG1RF, peptide 100 mg/L, 4 h, CFU enumerated. In kind it is cell-based, Enterococcus faecalis. The method, then:
(§3) E. faecalis OG1RF, TX5427 or V583 were cultured in a Calgary device for 24h in THB. Biofilms were treated with peptides (100 mg/L) for 4h and surviving cells were sonicated and plated on THA for enumeration of CFUs.
(§4) Fig 3 Effect of GL13K peptides on biofilms of E. faecalis. Twenty-four hour biofilms of OG1RF; OG1RF dltA or V583 were treated with 100 mg/L of L-GL13K (L) or D-GL13K (D). Surviving CFU were enumerated from each peg and expressed relative to the mean CFU recovered from pegs of wild-type cells treated with buffer alone (OG1RF—C). Data from 2–4 experiments are expressed as mean ± SEM (N = 6–13). V583 was only treated with D-GL13K.

Series [6] concerns E. faecalis OG1RF dltA (TX5427) biofilm. Description: Biofilm assay (Calgary device). The class given is cell-based, Enterococcus faecalis. The note with it: 24 h biofilm of OG1RF dltA, peptide 100 mg/L, 4 h, CFU relative to the wild-type biofilm. As to the method: as §3, §4
Series [7] concerns vancomycin-resistant E. faecalis V583 biofilm. Description: Biofilm assay (Calgary device). To be noted: 24 h biofilm of V583, peptide 100 mg/L, 4 h, CFU enumerated. In kind it is cell-based, Enterococcus faecalis. The method, then: as §3, §4
The test system of series [8] is E. faecalis dltA mutant (TX5427). Description: Selection for peptide resistance, serial MIC assays. To be noted: serial passage at 0.5 x MIC, L-GL13K after two rounds, D-GL13K after seven rounds, three experiments. The class given is cell-based, Enterococcus faecalis. The method, then: (§5) To investigate potential resistance development against the GL13K peptides, dilutions of the peptides were prepared and incubated as described for the MIC assay. The next day (day 0), the MIC was recorded and the culture in the well with the highest peptide concentration that allowed growth (i.e 0.5 x MIC) was diluted 1:100 and used as an inoculum for the next round of selection in a new MIC assay and so forth until a stable plateau of resistance was reached.
(§6) Fig 4 Development of resistance in E. faecalis. MICs for L-GL13K (circles) and D-GL13K (squares) were recorded on consecutive days using E. faecalis OG1RF (wild-type) (open symbols) (D-enantiomer only) and dltA (closed symbols). The MIC for each day is expressed relative to the starting MIC (day 0). Data from three experiments are shown as mean ± SEM.

The subject of series [9] is wild-type E. faecalis (OG1RF). Described as above. The class given is cell-based, Enterococcus faecalis. The note with it: serial passage at 0.5 x MIC. As to the method:
as §5, §6

Series [10] deals with S. gordonii DL1 (wild-type). Described as above. In kind it is cell-based, Streptococcus gordonii. To be noted: repeated treatment with sub-inhibitory concentrations, 2–3 experiments. The method, then:
as §5
(§7) Fig 6 Development of resistance in S. gordonii. MICs for L-GL13K (circles) and D-GL13K (squares) were recorded on consecutive days using S. gordonii DL1 (wild-type) (open symbols) (D-enantiomer only) and dltA (closed symbols). The MIC for each day is expressed relative to the starting MIC (day 0). Data from 2–3 experiments are shown as mean ± range.

Series [11] deals with S. gordonii dltA mutant. The description is as above. In kind it is cell-based, Streptococcus gordonii. The note with it: repeated treatment with sub-inhibitory concentrations, 2–3 experiments. As to the method: as §5, §7

`CC[C@@H](C)[C@@H](NC(=O)[C@@H](CCCCN)NC(=O)CN)C(=O)N[C@@H](C(=O)N[C@H](CCCCN)C(=O)N[C@H](CC(C)C)C(=O)N[C@H](CCCCN)C(=O)N[C@H](C)C(=O)N[C@H](CO)C(=O)N[C@H](CC(C)C)C(=O)N[C@H](CCCCN)C(=O)N[C@H](CC(C)C)C(=O)N[C@H](CC(C)C)C(N)=O)[C@H](C)CC` [D-GL13K] (H-G[dK][dI][dI][dK][dL][dK][dA][dS][dL][dK][dL][dL]-NH2; N-terminus and C-terminus assumed): the “Peptide concentration required for complete killing” value in series [1] worked out at 15 ± 10 mg/L. In addition, the “Proteolysis of peptide (loss of activity against bioluminescent P. aeruginosa Xen41)” value in series [2] is “did not show significant proteolysis”. In [3], the “Effect on Triton X-100 induced autolysis (OD600)” value was “no autolysis was seen”. Further, in series [4], the “Reduction of viable cells under autolysis conditions” value is reported as 3 log10. In addition, the “Reduction of viable biofilm CFU” value was 3 log10 in [5], “highly effective” in series [6] and 3 log10 in series [7]. The “Increase of MIC relative to starting MIC (day 0)” value in series [8] was 2 fold; in series [9], “did not substantially increase the MIC”; in series [10], “little change of the MIC”; in series [11] it was “little change of the MIC”.
